# Measurements: the supplement of paper PMC10307832
# Experiments:
# Assay in all cases: relative viability (nuclei count vs DMSO), 5 days (fraction); higher = more cells survive
# AZ628 + Pemetrexed = compound: CC1=C(C=C(C=C1)NC(=O)C2=CC(=CC=C2)C(C)(C)C#N)NC3=CC4=C(C=C3)N=CN(C4=O)C [AZ628] + Nc1nc2[nH]cc(CCc3ccc(C(=O)N[C@@H](CCC(=O)O)C(=O)O)cc3)c2c(=O)[nH]1 [Pemetrexed] (partner 0.2 µM)
# How it was run: (§1)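 Lung cancer cell lines, seeded in 1536-well plates, were treated the following day by pin tool with a single drug or with five library-drug doses (not always all listed) in √10 steps on top of a fixed anchor-drug dose. Cells were fixed and nuclei stained in one step after 5 days, and nuclei were counted. Relative viability is the nuclei count for treated wells divided by that for vehicle wells, reported as medians of duplicate plates.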
# QS11 + Dasatinib = compound: C1CC2=C(C1)C=C(C=C2)OC3=NC(=C4C(=N3)N(C=N4)CC5=CC=C(C=C5)C6=CC=CC=C6)N[C@@H](CC7=CC=CC=C7)CO [QS11] + Cc1nc(Nc2ncc(C(=O)Nc3c(C)cccc3Cl)s2)cc(N2CCN(CCO)CC2)n1 [Dasatinib] (partner 0.075 µM)
# How it was run: as §1
# QS11 + Alpelisib = compound: C1CC2=C(C1)C=C(C=C2)OC3=NC(=C4C(=N3)N(C=N4)CC5=CC=C(C=C5)C6=CC=CC=C6)N[C@@H](CC7=CC=CC=C7)CO [QS11] + Cc1nc(NC(=O)N2CCC[C@H]2C(N)=O)sc1-c1ccnc(C(C)(C)C(F)(F)F)c1 [Alpelisib] (partner 2 µM)
# How it was run: as §1
# AZ628 + OSI-027 = compound: CC1=C(C=C(C=C1)NC(=O)C2=CC(=CC=C2)C(C)(C)C#N)NC3=CC4=C(C=C3)N=CN(C4=O)C [AZ628] + COc1cccc2cc(-c3nc([C@H]4CC[C@H](C(=O)O)CC4)n4ncnc(N)c34)[nH]c12 [OSI-027] (partner 0.5 µM)
# How it was run: as §1
Cell Line,relative viability (AZ628 + Pemetrexed; first compound 0.08 µM),relative viability (AZ628 + Pemetrexed; first compound 0.253 µM),relative viability (AZ628 + Pemetrexed; first compound 0.8 µM),relative viability (AZ628 + Pemetrexed; first compound 2.53 µM),relative viability (AZ628 + Pemetrexed; first compound 8 µM),relative viability (QS11 + Dasatinib; first compound 0.08 µM),relative viability (QS11 + Dasatinib; first compound 0.253 µM),relative viability (QS11 + Dasatinib; first compound 0.8 µM),relative viability (QS11 + Dasatinib; first compound 2.53 µM),relative viability (QS11 + Dasatinib; first compound 8 µM),relative viability (QS11 + Alpelisib; first compound 0.08 µM),relative viability (QS11 + Alpelisib; first compound 0.253 µM),relative viability (QS11 + Alpelisib; first compound 0.8 µM),relative viability (QS11 + Alpelisib; first compound 2.53 µM),relative viability (QS11 + Alpelisib; first compound 8 µM),relative viability (AZ628 + OSI-027; first compound 0.08 µM),relative viability (AZ628 + OSI-027; first compound 0.253 µM),relative viability (AZ628 + OSI-027; first compound 0.8 µM),relative viability (AZ628 + OSI-027; first compound 2.53 µM),relative viability (AZ628 + OSI-027; first compound 8 µM)
UMC-11,0.818,0.799,0.79,0.763,0.814,0.473,0.5,0.494,0.583,0.681,0.939,1.15,1.01,1.08,1.02,0.468,0.496,0.46,0.464,0.382
LCLC-103H,0.423,0.464,0.445,0.437,0.402,0.403,0.511,0.447,0.601,0.576,1.07,0.979,0.797,0.938,0.974,0.418,0.438,0.531,0.403,0.423
LU99A,0.191,0.186,0.215,0.215,0.175,0.463,0.587,0.685,0.684,0.681,0.486,0.528,0.596,0.367,0.405,0.271,0.313,0.268,0.288,0.239
LXF-289,0.939,0.722,0.893,0.866,0.678,0.228,0.263,0.241,0.291,0.191,1.07,1.05,0.764,0.906,0.85,0.812,0.763,0.736,0.74,0.434
EPLC-272H,0.229,0.309,0.265,0.293,0.248,–,0.394,0.35,0.257,0.333,0.931,0.934,1.04,1.04,1.1,0.211,0.258,0.295,0.238,0.171
LOU-NH91,0.345,0.384,0.332,0.36,0.339,0.56,0.51,0.524,0.628,0.602,0.687,0.636,–,0.691,0.697,0.72,0.712,0.651,0.664,0.569
HCC-44,0.629,0.682,0.643,0.706,0.679,–,–,–,–,–,0.837,0.755,0.659,0.728,0.476,0.453,0.441,0.493,0.374,0.365
NCI-H1651,0.632,0.522,0.563,0.711,0.554,0.486,0.306,0.333,0.495,0.291,1.06,1.1,0.822,0.896,0.713,0.577,0.703,0.649,0.579,0.659
NCI-H1915,0.518,0.506,0.455,0.359,0.242,0.348,0.321,–,0.35,0.239,1.06,1.16,–,1.06,0.999,0.447,0.476,0.428,0.355,0.243
NCI-H2009,1.1,1.09,1.05,1,0.464,0.277,0.295,0.261,0.209,0.229,1.18,1.19,1.12,0.969,0.999,0.537,0.452,0.287,0.327,0.243
COR-L 105,1.35,1.03,1.18,1.16,1.03,0.281,0.267,0.334,0.423,0.331,0.931,0.946,1.13,0.745,0.771,0.751,0.837,0.795,0.763,0.46
ABC-1,–,–,–,–,–,0.577,0.436,–,0.605,0.571,0.89,1.02,0.932,0.945,1.21,0.644,0.402,0.53,0.491,0.297
NCI-H1793,1.16,0.617,0.971,0.757,0.522,0.381,0.374,0.472,0.419,0.48,0.719,0.645,0.637,0.827,0.791,0.355,0.226,0.252,0.247,0.193
NCI-H1792,1,0.677,0.457,0.583,0.368,0.697,0.754,0.672,0.745,0.942,–,0.708,0.539,0.609,0.785,0.735,0.516,0.474,0.428,0.233
ChaGo-K-1,0.27,0.277,0.262,0.298,0.243,0.41,0.556,0.518,0.655,0.618,–,–,–,–,–,0.575,0.525,0.496,0.556,0.388
NCI-H2342,0.89,0.683,0.761,0.702,0.793,0.318,0.323,0.299,0.35,0.348,–,–,–,–,–,0.717,0.589,0.569,0.64,0.669
NCI-H1975,0.333,0.257,0.27,0.287,0.259,0.357,0.31,0.423,0.512,0.455,0.654,0.727,0.747,0.887,0.9,0.726,0.619,0.483,0.503,0.373
